Literature values in patent US11224632B2 (priority 2016, dated 2022).

Biological target: N-type calcium channel (Homo sapiens, UniProt Q00975)
Details: in vivo; cited from earlier work

Sequence of N-type calcium channel (Q00975 whole entry, looked up): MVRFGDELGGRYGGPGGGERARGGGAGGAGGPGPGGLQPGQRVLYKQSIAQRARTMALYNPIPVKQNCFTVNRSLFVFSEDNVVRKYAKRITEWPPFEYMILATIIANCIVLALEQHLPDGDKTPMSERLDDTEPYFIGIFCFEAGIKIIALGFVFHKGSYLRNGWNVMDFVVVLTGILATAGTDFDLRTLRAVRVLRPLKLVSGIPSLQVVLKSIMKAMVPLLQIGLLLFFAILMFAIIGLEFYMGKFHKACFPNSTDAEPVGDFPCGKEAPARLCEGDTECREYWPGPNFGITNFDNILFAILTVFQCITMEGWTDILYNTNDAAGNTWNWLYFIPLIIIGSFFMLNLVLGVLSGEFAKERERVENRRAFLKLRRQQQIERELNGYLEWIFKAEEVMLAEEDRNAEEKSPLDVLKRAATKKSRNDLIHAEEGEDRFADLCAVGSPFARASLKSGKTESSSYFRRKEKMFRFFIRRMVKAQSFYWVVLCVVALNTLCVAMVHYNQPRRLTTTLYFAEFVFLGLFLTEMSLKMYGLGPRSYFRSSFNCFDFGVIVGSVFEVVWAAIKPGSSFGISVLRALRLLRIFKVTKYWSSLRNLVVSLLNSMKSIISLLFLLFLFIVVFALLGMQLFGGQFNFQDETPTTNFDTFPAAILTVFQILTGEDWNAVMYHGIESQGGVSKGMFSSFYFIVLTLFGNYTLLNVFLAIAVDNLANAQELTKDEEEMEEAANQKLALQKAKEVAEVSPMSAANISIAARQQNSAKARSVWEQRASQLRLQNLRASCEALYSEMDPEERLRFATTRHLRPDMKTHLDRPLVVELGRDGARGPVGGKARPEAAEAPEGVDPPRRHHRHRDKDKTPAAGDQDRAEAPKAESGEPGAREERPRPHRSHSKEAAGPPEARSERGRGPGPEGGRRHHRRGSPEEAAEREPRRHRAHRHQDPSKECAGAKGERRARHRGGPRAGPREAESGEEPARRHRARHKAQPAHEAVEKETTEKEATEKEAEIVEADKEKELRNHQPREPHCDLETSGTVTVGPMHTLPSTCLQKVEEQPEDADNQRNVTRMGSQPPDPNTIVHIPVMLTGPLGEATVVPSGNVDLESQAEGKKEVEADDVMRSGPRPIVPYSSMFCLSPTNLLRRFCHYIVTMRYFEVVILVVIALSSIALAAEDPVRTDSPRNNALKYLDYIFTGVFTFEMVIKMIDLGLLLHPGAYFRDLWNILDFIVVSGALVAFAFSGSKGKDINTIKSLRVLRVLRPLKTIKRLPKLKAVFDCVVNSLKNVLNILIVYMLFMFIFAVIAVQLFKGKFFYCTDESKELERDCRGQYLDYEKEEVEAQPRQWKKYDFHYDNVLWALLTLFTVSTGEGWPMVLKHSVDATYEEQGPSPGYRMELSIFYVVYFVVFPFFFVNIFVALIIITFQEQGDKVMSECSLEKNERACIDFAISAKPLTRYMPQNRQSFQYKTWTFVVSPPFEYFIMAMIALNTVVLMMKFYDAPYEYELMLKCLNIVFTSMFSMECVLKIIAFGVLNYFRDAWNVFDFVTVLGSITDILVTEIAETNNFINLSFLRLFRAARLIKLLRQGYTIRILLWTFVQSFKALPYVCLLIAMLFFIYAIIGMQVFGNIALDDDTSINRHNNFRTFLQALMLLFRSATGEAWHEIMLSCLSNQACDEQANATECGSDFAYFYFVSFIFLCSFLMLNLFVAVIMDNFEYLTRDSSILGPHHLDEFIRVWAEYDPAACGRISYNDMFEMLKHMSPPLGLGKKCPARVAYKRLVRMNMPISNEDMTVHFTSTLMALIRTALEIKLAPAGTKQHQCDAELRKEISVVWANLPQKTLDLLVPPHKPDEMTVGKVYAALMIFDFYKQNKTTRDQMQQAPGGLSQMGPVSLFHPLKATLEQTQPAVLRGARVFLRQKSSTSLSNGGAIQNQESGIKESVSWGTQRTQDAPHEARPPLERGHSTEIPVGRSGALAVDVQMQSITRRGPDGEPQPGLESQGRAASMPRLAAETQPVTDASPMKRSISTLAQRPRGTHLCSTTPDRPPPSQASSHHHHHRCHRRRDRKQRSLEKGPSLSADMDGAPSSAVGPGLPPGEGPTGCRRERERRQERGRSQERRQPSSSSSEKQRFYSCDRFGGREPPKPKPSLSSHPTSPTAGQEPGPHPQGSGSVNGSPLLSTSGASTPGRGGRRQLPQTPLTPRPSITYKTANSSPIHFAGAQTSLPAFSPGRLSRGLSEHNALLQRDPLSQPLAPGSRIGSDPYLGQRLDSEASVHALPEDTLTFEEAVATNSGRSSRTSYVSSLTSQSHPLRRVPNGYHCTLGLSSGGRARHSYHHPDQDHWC

CSCC[C@@H]1NC(=O)[C@H](CC(C)C)NC(=O)[C@H](CCCNC(=N)N)NC(=O)[C@H](CO)NC(=O)[C@@H]2CSSC[C@@H]3NC(=O)[C@H](CO)NC(=O)CNC(=O)[C@H]([C@@H](C)O)NC(=O)[C@H](CSSC[C@H](N)C(=O)N[C@@H](CCCCN)C(=O)NCC(=O)N[C@@H](CCCCN)C(=O)NCC(=O)N[C@@H](C)C(=O)N[C@@H](CCCCN)C(=O)N2)NC(=O)[C@H](CSSC[C@@H](C(N)=O)NC(=O)[C@H](CCCCN)NC(=O)CNC(=O)[C@H](CO)NC(=O)[C@H](CCCNC(=N)N)NC3=O)NC(=O)[C@H](CC(=O)O)NC(=O)[C@H](Cc2ccc(O)cc2)NC1=O [ziconotide]
patients with severe CNS adverse effects: 88%
